According to patent US4081441A, “Antibacterial agents” (priority 1977, dated 1978):
Like-named read-outs stand apart in the source and are kept apart here.

Assays:
Cl. chauvoei = assay: M.I.C. against anaerobic bacteria, Cl. chauvoei; type: cell-based; conditions: strain A9561
[1] = tested on: Pseudomonas aeruginosa A9843A; type: in vivo, mice; conditions: mouse, in vivo
Pseudomonas aeruginosa [2] = assay: Minimum Inhibitory Concentration, tube dilution, overnight incubation at 37° C.; type: cell-based
Pseudomonas aeruginosa [3] = assay: Minimum Bactericidal Concentration of BL-P1937, at least 99.9% kill, three inoculum sizes; type: cell-based
Description: The bactericidal in vitro activity of BL-P1937 against Pseudomonas aeruginosa strains was also determined. Three tests were run, using initial inoculum sizes of 2.4 × 10^5, 1.6 × 10^5 and 1.4 × 10^5 cells/ml., respectively, and the M.B.C. was defined as the lowest concentration of antibiotic in mcg./ml. needed to kill at least 99.9% of viable Pseudomonas cells.

[4] = Mouse blood (serum) antibiotic levels after single intramuscular dose; type: in vivo; conditions: im, mice, 40 mg./kg. i.m., read-out: Blood Level
Description: Serum antibiotic levels from mice administered a single intramuscular dose of 40 mg./kg. of BL-[…] or carbenicillin are shown below.

[5] = mice, 40 mg./kg. i.m., Literature values, cited from earlier work
Pseudomonas aeruginosa [6] = conditions: prior art; cited from earlier work

Compound: CC1(C)S[C@@H]2[C@H](NC(=O)[C@H](NC(=O)c3n[nH]c(=O)[nH]c3=O)c3ccc(O)cc3)C(=O)N2[C@H]1C(=O)O [BL-P1908, sodium D(-)-6-(α-(1,2,4-triazine-3,5-dione-6-carboxamido)-4-hydroxyphenylacetamido)penicillanate]
- MIC (Cl. chauvoei): 4 µg/mL
- equally effective dosage, drug alone [1]: 5 mg/kg

Compound: CC1(C)S[C@@H]2[C@H](NC(=O)[C@H](NC(=O)c3n[nH]c(=S)[nH]c3=O)c3ccc(O)cc3)C(=O)N2[C@H]1C(=O)O [BL-P1937, sodium D(-)-6-(α-(1,2,4-triazine-3-thione-5-one-6-carboxamido)-4-hydroxyphenylacetamido)-penicillanate]
- MIC (Pseudomonas aeruginosa [2]; strain A9910, Test 1): 1 µg/mL
- MIC (Pseudomonas aeruginosa [2]; strain A9910, Test 2): 2 µg/mL
- MIC (Pseudomonas aeruginosa [2]; strain A9910, Test 3): 4 µg/mL
- MIC (Pseudomonas aeruginosa [2]; strain A9926, Test 1): 2 µg/mL
- MIC (Pseudomonas aeruginosa [2]; strain A9926, Test 2): 4 µg/mL
- MIC (Pseudomonas aeruginosa [2]; strain A9926, Test 3): 2 µg/mL
- MIC (Pseudomonas aeruginosa [2]; strain A20126, Test 2): 8 µg/mL
- MIC (Pseudomonas aeruginosa [2]; strain A20126, Test 3): 4 µg/mL
- MIC (Pseudomonas aeruginosa [2]; strain A20128, Test 1): 2 µg/mL
- MIC (Pseudomonas aeruginosa [2]; strain A20128, Test 2): 2 µg/mL
- MIC (Pseudomonas aeruginosa [2]; strain A20128, Test 3): 2 µg/mL
- MIC (Pseudomonas aeruginosa [2]; strain A20227, Test 1): 4 µg/mL
- MIC (Pseudomonas aeruginosa [2]; strain A20227, Test 2): 4 µg/mL
- MIC (Pseudomonas aeruginosa [2]; strain A20227, Test 3): 2 µg/mL
- MIC (Pseudomonas aeruginosa [2]; strain A20228, Test 1): 2 µg/mL
- MIC (Pseudomonas aeruginosa [2]; strain A20228, Test 2): 8 µg/mL
- MIC (Pseudomonas aeruginosa [2]; strain A20228, Test 3): 2 µg/mL
- MIC (Pseudomonas aeruginosa [2]; strain A20546, Test 1): 2 µg/mL
- MIC (Pseudomonas aeruginosa [2]; strain A20546, Test 2): 2 µg/mL
- MIC (Pseudomonas aeruginosa [2]; strain A20546, Test 3): 2 µg/mL
- MIC (Pseudomonas aeruginosa [2]; strain A20557, Test 1): 2 µg/mL
- MIC (Pseudomonas aeruginosa [2]; strain A20557, Test 2): 4 µg/mL
- MIC (Pseudomonas aeruginosa [2]; strain A20557, Test 3): 4 µg/mL
- MIC (Pseudomonas aeruginosa [2]; strain A20574, Test 1): 4 µg/mL
- MIC (Pseudomonas aeruginosa [2]; strain A20574, Test 2): 2 µg/mL
- MIC (Pseudomonas aeruginosa [2]; strain A20574, Test 3): 2 µg/mL
- MIC (Pseudomonas aeruginosa [2]; strain A20602, Test 1): 4 µg/mL
- MIC (Pseudomonas aeruginosa [2]; strain A20602, Test 2): 8 µg/mL
- MIC (Pseudomonas aeruginosa [2]; strain A20602, Test 3): 2 µg/mL
- MIC (Pseudomonas aeruginosa [2]; strain A20616, Test 1): 2 µg/mL
- MIC (Pseudomonas aeruginosa [2]; strain A20616, Test 2): 4 µg/mL
- MIC (Pseudomonas aeruginosa [2]; strain A20616, Test 3): 4 µg/mL
- MIC (Pseudomonas aeruginosa [2]; strain A20641, Test 1): 8 µg/mL
- MIC (Pseudomonas aeruginosa [2]; strain A20641, Test 2): 8 µg/mL
- MIC (Pseudomonas aeruginosa [2]; strain A20641, Test 3): 8 µg/mL
- MIC (Pseudomonas aeruginosa [2]; strain A20717, Test 1): 16 µg/mL
- MIC (Pseudomonas aeruginosa [2]; strain A20717, Test 2): 32 µg/mL
- MIC (Pseudomonas aeruginosa [2]; strain A20717, Test 3): 16 µg/mL
- MIC (Pseudomonas aeruginosa [2]; strain A20726, Test 1): 2 µg/mL
- MIC (Pseudomonas aeruginosa [2]; strain A20726, Test 2): 8 µg/mL
- MIC (Pseudomonas aeruginosa [2]; strain A20726, Test 3): 8 µg/mL
- MIC (Pseudomonas aeruginosa [2]; strain A21336, Test 1): 4 µg/mL
- MIC (Pseudomonas aeruginosa [2]; strain A21336, Test 2): 8 µg/mL
- MIC (Pseudomonas aeruginosa [2]; strain A21336, Test 3): 4 µg/mL
- MBC (Pseudomonas aeruginosa [3]; strain A9843A, Test 1, inoculum 2.4 × 10^5): 125 µg/mL
- MBC (Pseudomonas aeruginosa [3]; strain A9910, Test 1, inoculum 2.4 × 10^5, read-out: M.B.C.): 125 µg/mL
- MBC (Pseudomonas aeruginosa [3]; strain A9910, Test 2, inoculum 1.6 × 10^5, read-out: M.B.C.): 250 µg/mL
- MBC (Pseudomonas aeruginosa [3]; strain A9910, Test 3, inoculum 1.4 × 10^5, read-out: M.B.C.): 500 µg/mL
- MBC (Pseudomonas aeruginosa [3]; strain A9926, Test 1, inoculum 2.4 × 10^5, read-out: M.B.C.): 250 µg/mL
- MBC (Pseudomonas aeruginosa [3]; strain A9926, Test 2, inoculum 1.6 × 10^5, read-out: M.B.C.): 1000 µg/mL
- MBC (Pseudomonas aeruginosa [3]; strain A9926, Test 3, inoculum 1.4 × 10^5, read-out: M.B.C.): 250 µg/mL
- MBC (Pseudomonas aeruginosa [3]; strain A20126, Test 1, inoculum 2.4 × 10^5, read-out: M.B.C.): 16 µg/mL
- MBC (Pseudomonas aeruginosa [3]; strain A20126, Test 2, inoculum 1.6 × 10^5, read-out: M.B.C.): 63 µg/mL
- MBC (Pseudomonas aeruginosa [3]; strain A20126, Test 3, inoculum 1.4 × 10^5, read-out: M.B.C.): 63 µg/mL
- MBC (Pseudomonas aeruginosa [3]; strain A20128, Test 1, inoculum 2.4 × 10^5, read-out: M.B.C.): 16 µg/mL
- MBC (Pseudomonas aeruginosa [3]; strain A20128, Test 2, inoculum 1.6 × 10^5, read-out: M.B.C.): 16 µg/mL
- MBC (Pseudomonas aeruginosa [3]; strain A20128, Test 3, inoculum 1.4 × 10^5, read-out: M.B.C.): 63 µg/mL
- MBC (Pseudomonas aeruginosa [3]; strain A20227, Test 1, inoculum 2.4 × 10^5, read-out: M.B.C.): 63 µg/mL
- MBC (Pseudomonas aeruginosa [3]; strain A20227, Test 2, inoculum 1.6 × 10^5, read-out: M.B.C.): 8 µg/mL
- MBC (Pseudomonas aeruginosa [3]; strain A20227, Test 3, inoculum 1.4 × 10^5, read-out: M.B.C.): 16 µg/mL
- MBC (Pseudomonas aeruginosa [3]; strain A20228, Test 1, inoculum 2.4 × 10^5, read-out: M.B.C.): 125 µg/mL
- MBC (Pseudomonas aeruginosa [3]; strain A20228, Test 2, inoculum 1.6 × 10^5, read-out: M.B.C.): 500 µg/mL
- MBC (Pseudomonas aeruginosa [3]; strain A20228, Test 3, inoculum 1.4 × 10^5, read-out: M.B.C.): 250 µg/mL
- MBC (Pseudomonas aeruginosa [3]; strain A20546, Test 1, inoculum 2.4 × 10^5, read-out: M.B.C.): 250 µg/mL
- MBC (Pseudomonas aeruginosa [3]; strain A20546, Test 2, inoculum 1.6 × 10^5, read-out: M.B.C.): 1000 µg/mL
- MBC (Pseudomonas aeruginosa [3]; strain A20546, Test 3, inoculum 1.4 × 10^5, read-out: M.B.C.): 500 µg/mL
- MBC (Pseudomonas aeruginosa [3]; strain A20557, Test 1, inoculum 2.4 × 10^5, read-out: M.B.C.): 250 µg/mL
- MBC (Pseudomonas aeruginosa [3]; strain A20557, Test 2, inoculum 1.6 × 10^5, read-out: M.B.C.): 1000 µg/mL
- MBC (Pseudomonas aeruginosa [3]; strain A20557, Test 3, inoculum 1.4 × 10^5, read-out: M.B.C.): 500 µg/mL
- MBC (Pseudomonas aeruginosa [3]; strain A20574, Test 1, inoculum 2.4 × 10^5, read-out: M.B.C.): 250 µg/mL
- MBC (Pseudomonas aeruginosa [3]; strain A20574, Test 2, inoculum 1.6 × 10^5, read-out: M.B.C.): 250 µg/mL
- MBC (Pseudomonas aeruginosa [3]; strain A20574, Test 3, inoculum 1.4 × 10^5, read-out: M.B.C.): 500 µg/mL
- MBC (Pseudomonas aeruginosa [3]; strain A20602, Test 1, inoculum 2.4 × 10^5, read-out: M.B.C.): 250 µg/mL
- MBC (Pseudomonas aeruginosa [3]; strain A20602, Test 2, inoculum 1.6 × 10^5, read-out: M.B.C.): 500 µg/mL
- MBC (Pseudomonas aeruginosa [3]; strain A20602, Test 3, inoculum 1.4 × 10^5, read-out: M.B.C.): 500 µg/mL
- MBC (Pseudomonas aeruginosa [3]; strain A20616, Test 1, inoculum 2.4 × 10^5, read-out: M.B.C.): 125 µg/mL
- MBC (Pseudomonas aeruginosa [3]; strain A20616, Test 2, inoculum 1.6 × 10^5, read-out: M.B.C.): 250 µg/mL
- MBC (Pseudomonas aeruginosa [3]; strain A20616, Test 3, inoculum 1.4 × 10^5, read-out: M.B.C.): 500 µg/mL
- MBC (Pseudomonas aeruginosa [3]; strain A20641, Test 1, inoculum 2.4 × 10^5, read-out: M.B.C.): 125 µg/mL
- MBC (Pseudomonas aeruginosa [3]; strain A20641, Test 2, inoculum 1.6 × 10^5, read-out: M.B.C.): 250 µg/mL
- MBC (Pseudomonas aeruginosa [3]; strain A20641, Test 3, inoculum 1.4 × 10^5, read-out: M.B.C.): 250 µg/mL
- MBC (Pseudomonas aeruginosa [3]; strain A20717, Test 1, inoculum 2.4 × 10^5, read-out: M.B.C.): 500 µg/mL
- MBC (Pseudomonas aeruginosa [3]; strain A20717, Test 2, inoculum 1.6 × 10^5, read-out: M.B.C.): 1000 µg/mL
- MBC (Pseudomonas aeruginosa [3]; strain A20717, Test 3, inoculum 1.4 × 10^5, read-out: M.B.C.): > 1000 µg/mL
- MBC (Pseudomonas aeruginosa [3]; strain A20726, Test 1, inoculum 2.4 × 10^5, read-out: M.B.C.): 32 µg/mL
- MBC (Pseudomonas aeruginosa [3]; strain A20726, Test 2, inoculum 1.6 × 10^5, read-out: M.B.C.): 250 µg/mL
- MBC (Pseudomonas aeruginosa [3]; strain A20726, Test 3, inoculum 1.4 × 10^5, read-out: M.B.C.): 500 µg/mL
- MBC (Pseudomonas aeruginosa [3]; strain A21336, Test 1, inoculum 2.4 × 10^5, read-out: M.B.C.): 250 µg/mL
- MBC (Pseudomonas aeruginosa [3]; strain A21336, Test 2, inoculum 1.6 × 10^5, read-out: M.B.C.): 500 µg/mL
- MBC (Pseudomonas aeruginosa [3]; strain A21336, Test 3, inoculum 1.4 × 10^5, read-out: M.B.C.): 500 µg/mL
- concentration at 0.25 h ([4]; 15 min.): 19900 ng/mL
- concentration at 0.5 h ([4]; 30 min.): 10300 ng/mL
- concentration at 1 h ([4]; 60 min.): < 2200 ng/mL
- concentration at 1.5 h ([4]; 90 min.): < 2200 ng/mL

Compound: CC1(C)S[C@@H]2[C@H](NC(=O)C(C(=O)O)c3ccccc3)C(=O)N2[C@H]1C(=O)O (some centres unmarked) [Carbenicillin, reference compound]
- Blood Level ([5]; 15 min.): 18100 ng/mL
- Blood Level ([5]; 30 min.): 8100 ng/mL
- Blood Level ([5]; 60 min.): < 4600 ng/mL
- Blood Level ([5]; 90 min.): < 4600 ng/mL
- potency against Pseudomonas aeruginosa (Pseudomonas aeruginosa [6]): relatively low potency
